Publication PMC12948223, “HSP70 Interactome‐Mediated Proteolysis Targeting Chimera (HSP70‐PROTAC) for Ferroptosis‐Driven Cancer Treatment” (Advanced Science, 2025)

Columns and labels:
GPX4 [1] = target: T1, GPX4 (Homo sapiens, UniProt P36969); assay: In-cell western (ICW) GPX4 degradation in HT1080 cells; type: cell-based; set-up: determine the changes in the endogenous levels of GPX4 by western blot assay; endogenous in cells; host or cells: HT1080 fibrosarcoma cells, including siRNA-knockdown derivatives; conditions: 24 h
T1 sequence (P36969 1-170 isoform P36969-2): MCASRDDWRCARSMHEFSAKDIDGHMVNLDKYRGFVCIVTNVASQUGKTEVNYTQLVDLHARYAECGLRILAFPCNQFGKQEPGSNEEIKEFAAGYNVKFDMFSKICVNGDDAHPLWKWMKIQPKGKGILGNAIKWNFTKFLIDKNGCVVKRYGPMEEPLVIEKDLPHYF
Method: (§1) To further confirm this degradation efficacy, an in‐cell western (ICW) assay, a quantitative immunofluorescence cell‐based technique, was performed to quantify the relative expression level of GPX4 after treatment with GDAz‐3 for 24 h. […] Given the promising GPX4 degradation activity of GDAz‐3, we extended our evaluation to additional ferroptosis‐sensitive cell lines, including triple‐negative breast cancer cells (MDA‐MB‐231) and melanoma cells (mouse B16‐F10). […] Based on the observation that GDAz‐3 was particularly effective in HT1080 cells, we selected this cell line for further degradation mechanism and ferroptosis pharmacodynamics studies.
HT1080 cells were seeded into 96‐well plates at a density of 1 × 10⁴ cells per well and cultured overnight. After 24‐h treatment with the drugs, the culture medium was removed, and 150 µL of 4% paraformaldehyde was added to each well to fix the cells at 4 °C for 20 min. The paraformaldehyde was removed, and 150 µL of 0.2% Triton X‐100 was added to each well. The cells were permeabilized by shaking at room temperature for 30 min. After removing the Triton X‐100, 50 µL of 1% BSA buffer was added to each well, and shaken at room temperature for 90 min. […] The PBS was discarded, and the plates were read using a Typhoon biomolecular imager (Cytiva, GPX4: wavelength 680 nm; GAPDH: 800 nm).

GPX4 [2] = target: T1, GPX4; assay: GPX4 degradation by western blot in MDA-MB-231 cells; type: cell-based; set-up: determine the changes in the endogenous levels of GPX4 by western blot assay; endogenous in cells; conditions: 24 h
Method: as §1
Cells were seeded at a density of 4 × 10^5 cells well^−1 in 6‐well plates and allowed to incubate overnight. Cells were incubated with the indicated treatments. Thereafter, the cells were collected and lysed with RIPA buffer containing serine protease and phosphatase inhibitors for 30 min on ice. Proteins were quantified by using a BCA protein assay kit (Beyotime). […] Ultimately, the membrane was washed five times, and the antibody‐protein complexes were visualized using an ECL luminescence reagent (Biosharp, Shanghai, China). The relative intensities of the bands were analyzed by ImageJ and normalized to a loading control.

[3] = target: T2, Hsc70 in the presence of GPX4 protein (Homo sapiens, UniProt P11142+P36969); assay: SPR ternary-complex binding (GDAz-3 preincubated with GPX4, Hsc70 immobilized)
T2 construct: purchased MedChemExpress (Hsc70); Cayman (GPX4) HY-P73915A; 26 906
Method: The SPR data was generated by our Shared Instrumentation Core Facility at the Hangzhou Institute of Medicine (HIM), Chinese Academy of Sciences. The in vitro binding affinity of compound GDAz‐3 to recombinant proteins (Hsc70, MedChemExpress, #HY‐P73915A; GPX4, Cayman, Item No. 26 906) was evaluated using a Biacore 8K system (Cytiva (GE)) with the method of LMW multi‐cycle kinetics/affinity. Pipelines and chips were flushed with PBS (pH 7.4) running buffer, and then, human Hsc70 was immobilized on a CM5 sensor chip. Analysis was performed at a flow rate of 30 µL min^−1 at 25 °C with the injection of incremental concentrations of compounds dissolved in buffer solution (the final concentration of DMSO was 5%). For ternary‐complex binding measurements, Hsc70 was immobilized on a CM5 sensor chip, and compound GDAz‐3 at a concentration of 1 µM was preincubated with GPX4. The binding and dissociation durations were recorded as response unit values for 120 and 120 s in succession, respectively. Finally, the data were analyzed by Biacore evaluation software with the method of LMW multi‐cycle kinetics/affinity.

T2 sequence (P11142 whole entry, one chain of several): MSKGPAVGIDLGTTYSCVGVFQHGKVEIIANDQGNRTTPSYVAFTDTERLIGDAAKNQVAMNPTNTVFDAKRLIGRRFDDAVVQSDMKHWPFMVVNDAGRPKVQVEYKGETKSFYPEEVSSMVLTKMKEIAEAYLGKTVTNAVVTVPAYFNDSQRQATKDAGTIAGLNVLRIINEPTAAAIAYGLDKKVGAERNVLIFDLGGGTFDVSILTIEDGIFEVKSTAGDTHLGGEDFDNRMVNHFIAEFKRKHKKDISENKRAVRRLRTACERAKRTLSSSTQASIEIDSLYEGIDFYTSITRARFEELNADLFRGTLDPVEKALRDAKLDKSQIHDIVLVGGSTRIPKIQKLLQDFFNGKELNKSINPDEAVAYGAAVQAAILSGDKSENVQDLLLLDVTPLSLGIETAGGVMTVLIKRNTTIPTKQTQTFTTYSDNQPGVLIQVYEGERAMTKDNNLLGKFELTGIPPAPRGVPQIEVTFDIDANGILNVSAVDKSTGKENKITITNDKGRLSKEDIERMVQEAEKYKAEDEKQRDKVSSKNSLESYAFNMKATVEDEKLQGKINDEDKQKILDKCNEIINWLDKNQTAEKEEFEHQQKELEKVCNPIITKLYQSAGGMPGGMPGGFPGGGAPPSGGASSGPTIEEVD

COc1ccc(-c2nc(-c3cc(C(F)(F)F)cc(C(F)(F)F)c3)n(Cc3ccc(C(=O)NCCOCCOCCOCCn4cc(COc5ccc(N(C(=O)CCl)C(C(=O)NCCc6ccccc6)c6cccs6)cc5Cl)nn4)cc3)c2-c2ccc(OC)cc2)cc1 (stereo not shown) [GDAz-3, 4-((2-(3,5-bis(trifluoromethyl)phenyl)-4,5-bis(4-methoxyphenyl)-1H-imidazol-1-yl)methyl)-N-(2-(2-(2-(2-(4-((2-chloro-4-(2-chloro-N-(2-oxo-2-(phenethylamino)-1-(thiophen-2-yl)ethyl)acetamido)phenoxy)methyl)-1H-1,2,3-triazol-1-yl)ethoxy)ethoxy)ethoxy)ethyl)benzamide]
DC50 (GPX4 [1]): 250 nM
GPX4 degradation (GPX4 [2]): effectively induce the degradation of GPX4 to varying extents
Kd ([3]; SPR, 1 µM GDAz-3 preincubated with GPX4, immobilized Hsc70): 23.9 nM
Cooperativity (α) ([3]; ternary complex Hsc70/GDAz-3/GPX4): 0.75
